Publication PMC10776879, “In vitro screening of topical formulation excipients for epithelial toxicity in cancerous and non-cancerous cell lines” (EXCLI Journal, 2023)
In brackets after ≈: the same amount, converted by molar mass.

How the values were obtained:
[1] = system: WM164 human melanoma cells; assay: Reactive Oxygen Species evaluation with dihydrorhodamine 123; type: cell-based; conditions: greatest applied concentration, 24 h
Experimental: (§1) The oxidant-sensitive dye, dihydrorhodamine 123 (DHR), was used to detect intracellular ROS level. Cells were plated in the flat bottom 96-well plates to sub confluent (60-70 %) then the medium was removed and replaced with the pre-warmed treatment solutions (medium containing different concentration of the excipients). After 24 hours incubation with treatment solutions, medium was removed and replaced with the 100 μl of pre-warmed dying buffer (Hank's balanced salt solution (HBSS) containing 12 µM DHR dye). Cells were incubated for 30 minutes at 37 °C in a humidified 5 % CO2 atmosphere in dark. The cellular fluorescence generated by the DHR oxidation was measured at 485 nm (OD 485) using a microplate reader (Multiskan™ FC Microplate Photometer). Hydrogen peroxide (H2O2) treatment (800, 400, 200, and 100 µM)/ (27, 13.5, 6.75, 3.4 µg/ml) was used as positive control and dying buffer with no cells as blank control. Data points were recorded every 10 minutes for 60 minutes and exported for analysis by Excel software. The ROS level is calculated as the difference between (Ftest/ Fcontrol) and expressed as percentages of the control value using this formulation: […]
(§2) where Ftest and Fcontrol are the fluorescence intensities of the cells exposed to the treatments and the cells with only medium, respectively. Fluorescence intensity of the blank wells were measured at every measurement time points and recorded to compare with the control wells.

[2] = system: D24 human melanoma cells; assay: as above; type: cell-based; conditions: greatest applied concentration, 24 h
Experimental: as §1, §2

[3] = system: HaCaT human keratinocytes; assay: as above; type: cell-based; conditions: greatest applied concentration, 24 h
Experimental: as §1, §2

[4] = system: WM1366 human melanoma cells; assay: as above; type: cell-based; conditions: greatest applied concentration, 24 h
Experimental: as §1, §2

[5] = system: WM164 human melanoma cells; assay: Trypan blue (TB) exclusion assay, membrane integrity; type: cell-based; conditions: 24 h exposure, read-out: IC50 (μg/ml) WM164, TB
Experimental: (§3) The dye exclusion test is routinely applied in laboratories to assess the number of live cells present in a cell suspension. […] In this assay a cell suspension is mixed with dye and then visualized to distinguish the cells that take up dye from the ones that exclude it. Viable cells will be seen as a clear cytoplasm whereas a dead cell will appear with a blue cytoplasm (Strober, 2001[86]). After cell incubation for 24 h, the excipient-containing medium was removed, and cells were trypsinized using trypsin-EDTA to obtain cell suspension. 20 µl of trypan blue dye was mixed thoroughly with 20 µl cell suspension by pipetting ups and downs and loaded into the cell counting slide. Cell numbers were detected by the automated cell counting machine. To find the total number of viable cells in one ml of aliquot, the number of viable cells was multiplied by 2 (the dilution factor for trypan blue). Viable cell percentage was calculated as follows: […]

[6] = system: D24 human melanoma cells; assay: as above; type: cell-based; conditions: 24 h exposure, read-out: IC50 (μg/ml) D24, TB
Experimental: as §3

[7] = system: HaCaT human keratinocytes; assay: as above; type: cell-based; conditions: 24 h exposure, read-out: IC50 (μg/ml) HaCaT, TB
Experimental: as §3

[8] = system: WM1366 human melanoma cells; assay: as above; type: cell-based; conditions: 24 h exposure, read-out: IC50 (μg/ml) WM1366, TB
Experimental: as §3

[9] = system: primary skin fibroblasts (FB); assay: as above; type: cell-based; conditions: Homo sapiens, Skin fibroblast, 24 h exposure, read-out: IC50 (μg/ml) FB, TB
Experimental: as §3

[10] = Table 1, physicochemical information of the excipients, source not given; cited from earlier work
[11] = system: primary skin fibroblasts (FB); assay: MTT cell viability assay; type: cell-based, human; conditions: Homo sapiens, Skin fibroblast, 24 h exposure, read-out: IC50 (μg/ml) [Mean, Range] FB, MTT
Experimental: (§4) Cells were seeded into the 96-well cell culture plates in 100 μl of complete culture medium at the initial density of 2x10^4 (cells/ml). Cells were incubated under 5 % CO2 at 37 °C for 24 hours for adhering to the wells and medium was then replaced with 100 μl of fresh medium containing excipient solution at the required final concentration. Each concentration was tested in minimum of 5 replicates and control cells were exposed to the culture medium only.
(§5) After cell incubation for 24 h, the excipient-containing medium was removed, and 100 μl of MTT in PBS (5 mg/ml) diluted 1:10 in medium was then added in the dark. Plates were further incubated for 2-3 h, after which time the medium was removed and the purple formazan product was dissolved by adding 200 μl of DMSO to each well. Plates were then placed in a shaker for 5 min at room temperature and the absorbance of the resulting solutions was measured at 570 nm using a microplate reader (Multiskan™ FC Microplate Photometer). The effect of each treatment was calculated as the percentage of tetrazolium salt reduction by viable cells against the negative control (cells treated with culture medium only).
(§6) To assess the excipients' cytotoxicity, the dose-response effect of each excipient was measured against the cell lines. The cytotoxicity value for each concentration of the excipients was expressed as percentage of viability against the untreated control wells (the optical density of untreated cells was set at 100 % viability) to construct dose-response curves.
(§7) All IC50 values were expressed as µg/ml. The percentage viability was calculated as follows: […]

[12] = system: WM164 human melanoma cells; assay: Crystal violet (CV) cell viability assay; type: cell-based; conditions: Homo sapiens, 24 h exposure, read-out: IC50 (μg/ml) [Mean, Range] WM164, CV
Experimental: (§8) Cells were seeded into the 96-well cell culture plates in 100 μl of complete culture medium at the initial density of 2x10^4 (cells/ml). Cells were incubated under 5 % CO2 at 37 °C for 24 hours for adhering to the wells and medium was then replaced with 100 μl of fresh medium containing excipient solution at the required final concentration. Each concentration was tested in minimum of 5 replicates and control cells were exposed to the culture medium only. Fixed cells were stained with crystal violet dye solution to screen cell viability under treatment conditions. Cells are fixed by 4 % (v/v) paraformaldehyde in PBS for 10 minutes. Crystal violet assay of 0.05 % (v/v) is prepared by 1:4 dilution of the crystal violet stock solution (v/v) in 4 % (v/v) paraformaldehyde. The fixed cells were washed twice with PBS and covered with 250 µl crystal violet working solution. The plates were placed on a bench rocker with medium frequency (20 oscillations per minute) at room temperature for 20 minutes. The plates were emptied and washed under indirect stream of tap water for three times and inverted on filter paper. The plates were taped gently on the paper to remove any remaining liquid and air dried with no lid for minimum of 2 hr at room temperature. After the plates were photographed, blue dye was dissolved in DMSO and the optical density of each well was measured at 570 nm (OD570) with a plate reader (Multiskan™ FC Microplate Photometer). The effect of each treatment was calculated as the percentage of crystal viable staining of surviving attached cells, against the negative control (cells treated with culture medium only). To assess the excipients' cytotoxicity, the dose-response effect of each excipient was measured against the cell lines. The cytotoxicity value for each concentration of the excipients was expressed as percentage of viability against the untreated control wells (the optical density of untreated cells was set at 100 % viability) to construct dose-response curves. […] All IC50 values were expressed as µg/ml. The percentage viability was calculated as follows: […]

[13] = system: D24 human melanoma cells; assay: Crystal violet (CV) cell viability assay; type: cell-based; conditions: Homo sapiens, 24 h exposure, read-out: IC50 (μg/ml) [Mean, Range] D24, CV
Experimental: as §8

[14] = system: HaCaT human keratinocytes; assay: Crystal violet (CV) cell viability assay; type: cell-based; conditions: Homo sapiens, 24 h exposure, read-out: IC50 (μg/ml) [Mean, Range] HaCaT, CV
Experimental: as §8

[15] = system: WM1366 human melanoma cells; assay: Crystal violet (CV) cell viability assay; type: cell-based; conditions: Homo sapiens, 24 h exposure, read-out: IC50 (μg/ml) [Mean, Range] WM1366, CV
Experimental: as §8

[16] = system: primary skin fibroblasts (FB); assay: Crystal violet (CV) cell viability assay; type: cell-based, human; conditions: Homo sapiens, Skin fibroblast, 24 h exposure, read-out: IC50 (μg/ml) [Mean, Range] FB, CV
Experimental: as §8

[17] = system: WM164 human melanoma cells; assay: MTT cell viability assay; type: cell-based; conditions: Homo sapiens, 24 h exposure, read-out: IC50 (μg/ml) [Mean, Range] WM164, MTT
Experimental: as §4, §5, §6, §7

[18] = system: D24 human melanoma cells; assay: MTT cell viability assay; type: cell-based; conditions: Homo sapiens, 24 h exposure, read-out: IC50 (μg/ml) [Mean, Range] D24, MTT
Experimental: as §4, §5, §6, §7

[19] = system: HaCaT human keratinocytes; assay: MTT cell viability assay; type: cell-based; conditions: Homo sapiens, 24 h exposure, read-out: IC50 (μg/ml) [Mean, Range] HaCaT, MTT
Experimental: as §4, §5, §6, §7

[20] = system: WM1366 human melanoma cells; assay: MTT cell viability assay; type: cell-based; conditions: Homo sapiens, 24 h exposure, read-out: IC50 (μg/ml) [Mean, Range] WM1366, MTT
Experimental: as §4, §5, §6, §7

[21] = system: primary skin fibroblasts (FB); assay: Reactive Oxygen Species evaluation with dihydrorhodamine 123; type: cell-based, human; conditions: greatest applied concentration, 24 h
Experimental: as §1, with “Hydrogen peroxide (H2O2) treatment (800, 400, 200, and 100 µM)/ (27, 13.5, 6.75, 3.4 µg/ml) was used as positive control and dying buffer with no cells as blank control.” left out
as §2

[22] = system: human cell lines (WM164, WM1366, D24, HaCaT, FB); assay: MTT and CV cytotoxicity, statements over all tested cell lines; type: cell-based
Experimental: as §4, §5
Fixed cells were stained with crystal violet dye solution to screen cell viability under treatment conditions. Cells are fixed by 4 % (v/v) paraformaldehyde in PBS for 10 minutes. Crystal violet assay of 0.05 % (v/v) is prepared by 1:4 dilution of the crystal violet stock solution (v/v) in 4 % (v/v) paraformaldehyde. The fixed cells were washed twice with PBS and covered with 250 µl crystal violet working solution. The plates were placed on a bench rocker with medium frequency (20 oscillations per minute) at room temperature for 20 minutes. The plates were emptied and washed under indirect stream of tap water for three times and inverted on filter paper. The plates were taped gently on the paper to remove any remaining liquid and air dried with no lid for minimum of 2 hr at room temperature. After the plates were photographed, blue dye was dissolved in DMSO and the optical density of each well was measured at 570 nm (OD570) with a plate reader (Multiskan™ FC Microplate Photometer). The effect of each treatment was calculated as the percentage of crystal viable staining of surviving attached cells, against the negative control (cells treated with culture medium only).
as §6
The cytotoxicity of the excipients was expressed in terms of an IC50 values (concentration causing 50 % death of the cell population) (Goldberg and Frazier, 1989[37]). […] All IC50 values were expressed as µg/ml. The percentage viability was calculated as follows: […]

[23] = system: human cervical cancer (HeLa) cells; set-up: method as in Ujhelyi et al., 2012[89], 2015[90]; conditions: HeLa cell line; ref Ujhelyi et al., 2012[89], 2015[90]; cited from earlier work

CCOCCOCCO [Transcutol®, diethylene glycol monoethyl ether]
ROS production increase vs untreated control [1]: 22.5%
ROS production increase vs untreated control [2]: 24.9%
ROS production increase vs untreated control [3]: 29.4%
ROS production increase vs untreated control [4]: 18.1%
IC50 [5]: 14.6 µg/mL (≈ 108 µM)
IC50 [6]: 21.6 µg/mL (≈ 161 µM)
IC50 [7]: 6.57 µg/mL (≈ 49 µM)
IC50 [8]: 13.7 µg/mL (≈ 102 µM)
IC50 [9]: 7.08 µg/mL (≈ 52.8 µM)
HLB [10]: 4
IC50 [11]: 5.54 µg/mL (≈ 41.3 µM)
IC50 [12]: 2.03 µg/mL (≈ 15.1 µM)
IC50 [13]: 5.01 µg/mL (≈ 37.3 µM)
IC50 [14]: 2.91 µg/mL (≈ 21.7 µM)
IC50 [15]: 3.55 µg/mL (≈ 26.5 µM)
IC50 [16]: 5.97 µg/mL (≈ 44.5 µM)
IC50 [17]: 2.12 µg/mL (≈ 15.8 µM)
IC50 [18]: 4.88 µg/mL (≈ 36.4 µM)
IC50 [19]: 3.32 µg/mL (≈ 24.7 µM)
IC50 [20]: 3.49 µg/mL (≈ 26 µM)
ROS production increase vs untreated control [21]: 4.3%
IC50 ([22]; Homo sapiens, over the tested cell lines, this study, read-out: IC50): 2 to 5.5 µg/mL (≈ 14.9 to 41 µM)
Irritancy ranking ([22]; rank by MTT and CV IC50 over all cell lines, 1 = most cytotoxic): 4
IC50, MTT endpoint [23]: 34 µg/mL (≈ 253 µM)
